Test results as given in article PMC9879991, “Biomolecular condensates formed by designer minimalistic peptides” (Nature Communications, 2023).
Where two headings read alike, the source gives them in different places. No end group written: not given here.

Tests used:
[1] = type: physicochemical; conditions: for Apparent diffusion coefficient D, condensed phase (FRAP) / t1/2 of the FRAP recovery: 20 mM peptide, 0.5% FITC-labeled, tris pH 8, 0.2 M NaCl
Description: Next, we studied whether the peptide sequence affects the material properties of the resulting liquid droplets. For this, we performed FRAP analysis using laser scanning confocal microscopy of 0.5% FITC-labeled peptides. […] The apparent diffusion coefficient for each peptide was calculated as1 Dapp=r^2/t where t is the recovery time. The calculated apparent diffusion coefficients of the peptides were in the 1.7–5.5*10^−14 m^2 s^−1 range (Supplementary Table 1).
Fig. 3 Strength of intermolecular interactions affects peptide droplet dynamics. a–c FRAP analysis of WGR-1, WGR-3, WGR-4, and WGR-5, performed using laser scanning confocal microscopy at 20 mM in Tris buffer at pH 8 with 0.2 M NaCl using 0.5% FITC-labeled peptides. a Representative confocal microscopy images of FRAP for individual droplets. Scale bars = 5 μm. FRAP recovery plots (b), apparent diffusion coefficient (c), and t1/2 of the recovery (d). Data are presented as mean values +/− SD, n = 5 (WGR-1), 4 (WGR-3, WGR-4), and 5 (WGR-5). Source data are provided as a Source Data file.
FRAP experiments were performed by a Zeiss Zen 900 confocal microscope with ×20/0.8 NA Plan- Apochromat air objective. For each of the peptides, out of a total peptide concentration of 20 mM we used 0.5% FITC-labeled peptide, in tris buffer pH 8 with 0.2 M NaCl. A circular area with radius of 2.5 μm was bleached with a 488 nm laser 100% intensity at 10 iterations; subsequent recovery of the bleached area was recorded with a 488 nm laser. Monitoring of fluorescence recovery in the condensates was analyzed using Zen Blue 3.2 software (Zeiss). Photobleaching correction and recovery time were calculated using OriginLab 9.95. The final FRAP recovery curve is the average of recovery curves collected from n = 4–6 separate droplets.

[2] = FRAP of WGR-1 droplets, replicate 1

Which results are given for WGRGRGRGWPGVGY [WGR-1]?
differential NaCl-induced change (20 vs 5 mM), average: 3.5 Hz; Apparent diffusion coefficient D, condensed phase (FRAP) ([1]; Dapp=r^2/t, mean of n=4-5 droplets): 4.58E-14 m^2 s^-1; Apparent diffusion coefficient D, condensed phase (FRAP) ([1]; bleached radius 2.5 μm, droplet 1): 4.047e-14 m^2 s^-1; t1/2 of the FRAP recovery ([1]; droplet 1): 37.1535; t1/2 of the FRAP recovery ([1]; droplet 2): 29.5706; t1/2 of the FRAP recovery ([1]; droplet 3): 25.8937; t1/2 of the FRAP recovery ([1]; droplet 4): 27.3852; t1/2 of the FRAP recovery ([1]; droplet 5): 32.7563; x=t at y=0.5a (t1/2 of FRAP recovery) ([1]; FRAP of WGR-1 droplets, from fit, mean of 5 droplets (stdev 4.50361)): 30.5519 s; x=t at y=0.95a (time to 95% of plateau recovery) ([1]; FRAP of WGR-1 droplets, from fit, mean of 5 droplets (stdev 17.8362)): 138.34 s; x=t at y=0.5a (t1/2 of FRAP recovery) ([1]; FRAP of WGR-1 droplets, from fit, replicate 1): 37.1535 s; x=t at y=0.5a (t1/2 of FRAP recovery) ([1]; FRAP of WGR-1 droplets, from fit, replicate 2): 29.5706 s; x=t at y=0.5a (t1/2 of FRAP recovery) ([1]; FRAP of WGR-1 droplets, from fit, replicate 3): 25.8937 s; x=t at y=0.5a (t1/2 of FRAP recovery) ([1]; FRAP of WGR-1 droplets, from fit, replicate 4): 27.3852 s; x=t at y=0.5a (t1/2 of FRAP recovery) ([1]; FRAP of WGR-1 droplets, from fit, replicate 5): 32.7563 s; %recovery (mean of fitted plateau a of the FRAP recovery curves) ([1]; FRAP of WGR-1 droplets, normalized intensity fitted with parameters a, b, c, mean of 5 droplets (stdev 7.03086)): 78.6308%; D (apparent diffusion coefficient from FRAP), average ([1]; FRAP of WGR-1 droplets, average of 5 droplets (stdev 6.05E-15)): 4.58E-14 m^2 s^-1; D (apparent diffusion coefficient from FRAP) [1, 2]: 4.05E-14 m^2 s^-1; a (fitted plateau of normalized FRAP recovery) [1, 2]: 68.4582; D condensed phase (FRAP), apparent diffusion coefficient ([1]; condensed phase, FRAP, mean, S.D. in next row): 4.52E-14 m^2/sec
